Test results taken from patent US9115142B2, “Heterocycle-substituted piperazino-dihydrothienopyrimidines” (Boehringer Ingelheim International GmbH, priority 2007, dated 2015).
Structures can show the parent of a compound that is named as a salt.

These compounds were tested against PDE4B (Homo sapiens, UniProt Q07343) (assay: Scintillation Proximity Assay (SPA) of PDE4B enzymatic activity ([H3]-cAMP cleavage)). Conditions: test substance 1 μM; one-hour incubation with [H3]-cAMP and PDE4B at 30° C.
Sequence of PDE4B (Q07343 whole entry, species assumed): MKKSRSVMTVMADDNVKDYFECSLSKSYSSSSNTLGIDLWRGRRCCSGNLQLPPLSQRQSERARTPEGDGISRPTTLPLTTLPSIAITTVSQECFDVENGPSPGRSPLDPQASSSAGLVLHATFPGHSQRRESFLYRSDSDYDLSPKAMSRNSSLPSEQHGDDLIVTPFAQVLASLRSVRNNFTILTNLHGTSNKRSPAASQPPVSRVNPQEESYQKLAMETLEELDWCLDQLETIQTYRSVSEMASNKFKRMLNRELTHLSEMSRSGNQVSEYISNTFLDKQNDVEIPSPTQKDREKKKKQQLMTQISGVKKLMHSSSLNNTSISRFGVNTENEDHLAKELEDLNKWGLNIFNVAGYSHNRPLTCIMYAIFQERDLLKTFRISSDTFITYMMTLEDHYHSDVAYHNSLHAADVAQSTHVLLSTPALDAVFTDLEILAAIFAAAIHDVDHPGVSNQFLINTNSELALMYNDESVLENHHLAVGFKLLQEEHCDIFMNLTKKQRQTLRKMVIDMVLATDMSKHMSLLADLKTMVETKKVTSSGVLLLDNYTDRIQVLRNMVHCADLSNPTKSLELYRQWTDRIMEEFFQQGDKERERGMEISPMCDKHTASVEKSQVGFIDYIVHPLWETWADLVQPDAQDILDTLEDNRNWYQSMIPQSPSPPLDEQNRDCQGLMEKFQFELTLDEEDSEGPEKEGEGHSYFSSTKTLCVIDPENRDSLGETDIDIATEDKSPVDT
Format: biochemical
Protocol: The Scintillation Proximity Assay (SPA) (GE Healthcare, No. TRKQ7090) was carried out by using the different affinities of cyclic 3″-5″-adenosinemonophosphate (cAMP, low affinity) and linear 5″-adenosinemonophosphate (AMP, high affinity) for yttrium silicate scintillator beads. The cAMP specific phosphodiesterase (PDE) PDE4B cleaves the 3″-phosphoester bond of tritium-labelled [H3]-cAMP to form [H3]-5″-AMP. This [H3]-AMP accumulates on the scintillator beads because of its higher affinity for them and causes scintillation events (flashes of light) which are measured in a Wallac Microbeta Scintillation Counter.
The experiment starts with a one-hour incubation of [H3]-cAMP with the PDE4B enzyme in assay buffer at 30° C., in each case once with the Example substance to be tested (in a concentration of 1 μM) and once without the Example substance to be tested.
After this incubation, the reaction is stopped by the addition of the beads. The beads have an opportunity to settle in the next 45 minutes, then the measurement is carried out in the Scintillation Counter. If the substance is capable of inhibiting the enzymatic activity of the PDE4B, less [H3]-AMP is produced during the incubation phase and fewer scintillation events can be measured.

inhibition at 1 µM | Structure (SMILES)
96% | CCN1CCc2ncc(N3CCN(c4nc5c(c(Nc6cccc(F)c6)n4)[S+]([O-])CC5)CC3)nc2CC1 (centres unmarked) [Example 109, {2-[4-(7-ethyl-6,7,8,9-tetrahydro-5H-pyrazino[2,3-d]azepin-2-yl)-piperazin-1-yl]-5-oxo-6,7-dihydro-5H-5λ^4-thieno[3,2-d]pyrimidin-4-yl}-(3-fluorophenyl)-amine trifluoroacetate]
96% | [O-][S+]1CCc2nc(N3CCN(c4ccncn4)CC3)nc(Nc3cccc(F)c3)c21 (centres unmarked) [Example 113, (3-fluorophenyl)-[5-oxo-2-(4-pyrimidin-4-yl-piperazin-1-yl)-6,7-dihydro-5H-5λ^4-thieno[3,2-d]pyrimidin-4-yl]-amine trifluoroacetate]
96% | [O-][S+]1CCc2nc(N3CCN(c4ccnc(O)c4)CC3)nc(Nc3cccc(F)c3)c21 (centres unmarked) [Example 114, 4-{4-[4-(3-fluorophenylamino)-5-oxo-6,7-dihydro-5H-5λ^4-thieno[3,2-d]pyrimidin-2-yl]-piperazin-1-yl}-pyridin-2-ol]
96% | [O-][S+]1CCc2nc(N3CCN(c4ccncc4)CC3)nc(Nc3cccc(F)c3)c21 (centres unmarked) [Example 117, (3-fluorophenyl)-[5-oxo-2-(4-pyridin-4-yl-piperazin-1-yl)-6,7-dihydro-5H-5λ^4-thieno[3,2-d]pyrimidin-4-yl]-amine]
95% | [O-][S+]1CCc2nc(N3CCN(c4nc(-c5ccc(F)cc5)cs4)CC3)nc(Nc3cccc(F)c3)c21 (centres unmarked) [Example 142, (3-fluorophenyl)-(2-{4-[4-(4-fluorophenyl)-thiazol-2-yl]-piperazin-1-yl}-5-oxo-6,7-dihydro-5H-5λ^4-thieno[3,2-d]pyrimidin-4-yl)-amine]
96% | [O-][S+]1CCc2nc(N3CCN(c4noc5ccccc45)CC3)nc(Nc3cccc(F)c3)c21 (centres unmarked) [Example 144, [2-(4-benzo[d]isoxazol-3-yl-piperazin-1-yl)-5-oxo-6,7-dihydro-5H-5λ^4-thieno[3,2-d]pyrimidin-4-yl]-(3-fluorophenyl)-amine]
95% | CC(C)[C@H](CO)Nc1nc(N2CCN(c3nc(-c4ccc(F)cc4)cs3)CC2)nc2c1[S+]([O-])CC2 (stereo partly drawn) [Example 148, (R)-2-(2-{4-[4-(4-fluorophenyl)-thiazol-2-yl]-piperazin-1-yl}-5-oxo-6,7-dihydro-5H-5λ^4-thieno[3,2-d]pyrimidin-4-ylamino)-3-m ethylbutan-1-ol]
95% | CC(C)[C@H](CO)Nc1nc(N2CCN(c3noc4ccccc34)CC2)nc2c1[S+]([O-])CC2 (stereo partly drawn) [Example 150, (R)-2-[2-(4-benzo[d]isoxazol-3-yl-piperazin-1-yl)-5-oxo-6,7-dihydro-5H-5λ^4-thieno[3,2-d]pyrimidin-4-ylamino]-3-methylbutan-1-ol]
